Patent publication US8940716B2, “Bicyclic heteroaryl compounds as GPR119 modulators” (Bristol-Myers Squibb Company, priority 2010, dated 2015)

What follows are compounds tested against T1, human-mouse chimeric GPR119 (Homo sapiens, UniProt Q8TDV5, A235T/C313R/C323Y/E253K/F304I/F307L/G211A/G245S/H255C/K284R/L224V/L258Q/L288Q/L301F/P218V/P318T/Q252H/R262K/S214P/S219N/S228A/S309P/S322A/T217S/T239S/V227I/V300F) (assay: Tet-inducible cAMP assay). Details: not given.
T1 construct: the first 198 amino acids of human GPR119; the C-terminal 137 amino acids of the mouse receptor; expressed in transfected cells
T1 sequence (Q8TDV5 with tags, fused parts or gaps G211A/S214P/T217S/P218V/S219N/L224V/V227I/S228A/A235T/T239S/G245S/Q252H/E253K/H255C/L258Q/R262K/K284R/L288Q/V300F/L301F/F304I/F307L/S309P/C313R/P318T/S322A/C323Y): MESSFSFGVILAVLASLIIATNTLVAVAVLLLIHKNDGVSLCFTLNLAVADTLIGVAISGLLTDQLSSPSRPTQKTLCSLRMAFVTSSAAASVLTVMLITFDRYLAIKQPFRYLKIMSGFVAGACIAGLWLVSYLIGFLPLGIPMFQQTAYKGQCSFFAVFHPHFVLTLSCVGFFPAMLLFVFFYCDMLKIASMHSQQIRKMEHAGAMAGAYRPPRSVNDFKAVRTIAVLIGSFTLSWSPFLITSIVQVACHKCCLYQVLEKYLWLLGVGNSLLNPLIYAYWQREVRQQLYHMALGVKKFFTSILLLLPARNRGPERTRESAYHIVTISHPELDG
Type: cell-based
Method: The in vitro modulation of recombinant human GPR119 was determined as follows.
A human-mouse chimeric GPR119 expression construct encoding 3 copies of the FLAG epitope tag, the first 198 amino acids of human GPR119 and the C-terminal 137 amino acids of the mouse receptor was cloned into a tetracycline inducible vector pcDNA5/FRT/TO (Invitrogen #V6520-20), which includes a hygromycin-resistance marker. Tightly controlled receptor expression was achieved by stable integration of this construct into the genome of a specific host cell line, Flp-In-T-Rex-HEK293, expressing the tetracycline repressor (Invitrogen). Once a stable hygromycin-resistant cell line was generated, the cells were maintained at 37° C. in a humidified 5% CO2 atmosphere in culture medium consisting of Dulbecco's modified Eagle's medium (DMEM; Invitrogen #11960) supplemented with 2 mM L-glutamine, 10% fetal bovine serum, 200 μg/ml hygromycin B, and 15 μg/ml blasticidin.
Forty-eight hours prior to the cAMP accumulation assay, cells stably expressing the chimeric human/mouse GPR119 construct were seeded at a density of 4×10^3 cells/well in 384 well poly-D-lysine coated solid white plates (BD #35-6661) and grown at 37° C. in a humidified 5% CO2 atmosphere in culture medium supplemented with 1 μg/ml tetracycline to induce expression of the receptor. On the day of the assay, medium was removed and cells were incubated for 50 min. at 37° C. in a humidified 5% CO2 atmosphere in 20 μl/well of assay buffer (phosphate-buffered saline with Ca^2+ and Mg^2+, 12 mM glucose, 0.1 mM isobutyl-methyl-xanthine, 0.1% fatty-acid free bovine serum albumin) with the desired concentration of compound added from a concentrated stock dissolved in dimethyl sulfoxide (DMSO) to give a final concentration of 1% DMSO in the assay. cAMP accumulation was measured using the CisBio homogeneous time resolved fluorescence (HTRF) assay kit (#62AM2PEC) following the manufacturer's protocol. Briefly, 10 μl each of the cAMP-HTRF fluorescence detection reagents were added to each well, and the samples were incubated for 40 min. at room temperature. Fluorescence was excited at 320 nm and measured at 665 and 620 nm using the Envision instrument (Perkin Elmer), the fluorescence ratio of 665/620 was calculated and converted to nanomolar concentrations of cAMP in each well by interpolation from a cAMP standard curve. The concentration-response curves and EC50 values were calculated with a four parameter logistic curve fit equation utilizing Excel/XLfit software (Microsoft and IDBS). The EC50 value was calculated as the concentration of agonist which increased the cAMP concentration to a value halfway between the baseline and the maximum.
Compounds of the present invention were tested in the Tet-inducible cAMP assay described immediately above and the results shown in Table 2 below were obtained.

In the case of `CCCc1cnc(N2CCC(Oc3nc4ccc(C5=CCN(S(=O)(=O)CCCCCCP(=O)(OC)OC)CC5)cc4s3)CC2)nc1` [Example 177], the EC50 is reported as 9.7 nM.

Same assay, conditions: cAMP accumulation (HTRF), Flp-In-T-Rex-HEK293 cells expressing chimeric human/mouse GPR119, 50 min incubation; read-out: GPR119 EC50

Compared with `CCCc1cnc(N2CCC(Oc3nc4ccc(C5=CCN(S(=O)(=O)C[C@@H](C)CO)CC5)cc4s3)CC2)nc1` (single isomer, unassigned) [Example 19], `CCCc1cnc(N2CCC(Oc3nc4ccc(C5=CCN(S(=O)(=O)CCCO)CC5)cc4s3)CC2)nc1` [Example 3, 3-(4-(2-(1-(5-Propylpyrimidin-2-yl)piperidin-4-yloxy)benzo[d]thiazol-6-yl)-5,6-dihydropyridin-1(2H)-ylsulfonyl)propan-1-ol] is 4.8-fold higher in EC50: 2.3 nM for the first, 11.1 nM for the second.

Compared with `CCCc1cnc(N2CCC(Oc3nc4ccc(C5=CCN(S(=O)(=O)CCN6CC(O)C6)CC5)cc4s3)CC2)nc1` [Example 7, 1-(2-(4-(2-(1-(5-Propylpyrimidin-2-yl)piperidin-4-yloxy)benzo[d]thiazol-6-yl)-5,6-dihydropyridin-1(2H)-ylsulfonyl)ethyl)azetidin-3-ol], `CCCc1cnc(N2CCC(Oc3nc4ccc(C5=CCN(S(=O)(=O)CCN6CCCC6)CC5)cc4s3)CC2)nc1` [Example 134] is 1.6-fold higher in EC50: 33.9 nM for the first, 55.6 nM for the second. The first is the more potent here.

Compared with `CCCS(=O)(=O)N1CC=C(c2ccc3nc(OC4CCN(S(=O)(=O)C5CC5)CC4)sc3c2)CC1` [Example 22, 2-(1-(Cyclopropylsulfonyl)piperidin-4-yloxy)-6-(1-(propylsulfonyl)-1,2,3,6-tetrahydropyridin-4-yl)benzo[d]thiazole], `CCCS(=O)(=O)N1CC=C(c2ccc3nc(OC4CCN(S(C)(=O)=O)CC4)sc3c2)CC1` [Example 111] is 7.8-fold higher in EC50: 29.1 nM for the first, 228 nM for the second.

Going from `CCCc1cnc(N2CCC(Oc3nc4ccc(C5=CCN(S(=O)(=O)CCCCC[N+](CC)(CC)CC)CC5)cc4s3)CC2)nc1` [Example 32, N,N,N-triethyl-5-(4-(2-(1-(5-propylpyrimidin-2-yl)piperidin-4-yloxy)benzo[d]thiazol-6-yl)-5,6-dihydropyridin-1(2H)-ylsulfonyl)pentan-1-aminium bromide] to `CCCc1cnc(N2CCC(Oc3nc4ccc(C5=CCN(S(=O)(=O)CCCC(=O)N(CC)CC)CC5)cc4s3)CC2)nc1` [Example 231], the EC50 falls from 9.7 nM to 2.3 nM (4.2-fold). The second is the more potent here.

First: CCCc1cnc(N2CCC(Oc3nc4ccc(C5=CCN(S(=O)(=O)CCC(C)(C)OC(=O)CCC(=O)O)CC5)cc4s3)CC2)nc1 [Example 39, 4-(2-methyl-4-(4-(2-(1-(5-Propylpyrimidin-2-yl)piperidin-4-yloxy)benzo[d]thiazol-6-yl)-5,6-dihydropyridin-1(2H)-ylsulfonyl)butan-2-yloxy)-4-oxobutanoic acid]
Second: CCCc1cnc(N2CCC(Oc3nc4ccc(C5=CCN(S(=O)(=O)CCCC(C)(C)O)CC5)cc4s3)CC2)nc1 [Example 114]
The EC50 of the first is 5.7-fold higher: 25 nM for the first, 4.4 nM for the second. The second is the more potent here.

First: CC(C)c1noc(N2CCC(Oc3nc4ccc(C5=CCN(S(=O)(=O)CCC(C)(C)O)CC5)cc4s3)CC2)n1 [Example 44, 4-(4-(2-(1-(3-Isopropyl-1,2,4-oxadiazol-5-yl)piperidin-4-yloxy)benzo[d]thiazol-6-yl)-5,6-dihydropyridin-1(2H)-ylsulfonyl)-2-methylbutan-2-ol]
Second: CC(C)(O)CCS(=O)(=O)N1CC=C(c2ccc3nc(OC4CCN(c5ncc(Cl)cn5)CC4)sc3c2)CC1 [Example 118]
The EC50 of the first is 2-fold higher: 7.2 nM for the first, 3.6 nM for the second. The second is the more potent here.

Going from `CCCc1cnc(N2CCC(Oc3nc4ccc(N5CCC(C(=O)N6CCCC6)CC5)cc4s3)CC2)nc1` [Example 45, (1-(2-(1-(5-Propylpyrimidin-2-yl)piperidin-4-yloxy)benzo[d]thiazol-6-yl)piperidin-4-yl)(pyrrolidin-1-yl)methanone] to `O=S(=O)(CCCO)N1CCN(c2ccc3nc(OC4CCN(c5ncc(F)cn5)CC4)sc3c2)CC1` [Example 221], the EC50 falls from 463 nM to 13.9 nM (33-fold). The second is the more potent here.

First: CN(C)S(=O)(=O)N1CC=C(c2ccc3nc(OC4CCN(c5ncc(F)cn5)CC4)sc3c2)CC1 [Example 49, 4-(2-((1-(5-Fluoropyrimidin-2-yl)piperidin-4-yl)oxy)benzo[d]thiazol-6-yl)-N,N-dimethyl-5,6-dihydropyridine-1(2H)-sulfonamide]
Second: COc1cnc(N2CCC(Oc3nc4ccc(C5=CCN(S(=O)(=O)CCCCO)CC5)cc4s3)CC2)nc1 [Example 241]
The EC50 of the first is 19-fold higher: 7.5 nM for the first, 0.4 nM for the second. The second is the more potent here.

First: CCCc1cnc(N2CCC(Nc3nc4ccc(C5=CCN(S(=O)(=O)CCC)CC5)cc4s3)CC2)nc1 [Example 53]
Second: CCCc1cnc(N2CCC(Nc3nc4ccc(C5=CCN(S(C)(=O)=O)CC5)cc4s3)CC2)nc1 [Example 54]
The EC50 of the first is 1.6-fold lower: 283 nM for the first, 450 nM for the second. The first is the more potent here.

`CCCc1cnc(N2CCC(Oc3nc4ccc(C5=CCN(c6nc(C)cs6)CC5)cc4s3)CC2)nc1` [Example 60] and `CCCc1cnc(N2CCC(Oc3nc4ccc(C5=CCN(c6ncc(C)s6)CC5)cc4s3)CC2)nc1` [Example 61] are within 1.5-fold of each other in EC50: 767 nM for the first, 547 nM for the second.

`CCCc1cnc(N2CCC(Oc3nc4ccc(C5=CCN(C(=O)CC(C)C)CC5)cc4s3)CC2)nc1` [Example 63] and `CCCNC(=O)N1CC=C(c2ccc3nc(OC4CCN(c5ncc(CCC)cn5)CC4)sc3c2)CC1` [Example 194] are within 1.5-fold of each other in EC50: 292 nM for the first, 378 nM for the second.

Going from `CCCc1cnc(N2CCC(Oc3nc4ccc(C5=CCN(C(=O)c6csnn6)CC5)cc4s3)CC2)nc1` [Example 73] to `CCCCOC(=O)N1CC=C(c2ccc3nc(OC4CCN(c5ncc(CCC)cn5)CC4)sc3c2)CC1` [Example 81], the EC50 falls from 788 nM to 142 nM (5.5-fold).

Going from `CCCc1cnc(N2CCC(Oc3nc4ccc(C5=CCN(S(=O)(=O)c6cccc(C(=O)O)c6)CC5)cc4s3)CC2)nc1` [Example 79] to `CCCc1cnc(N2CCC(Oc3nc4ccc(C5=CCN(S(=O)(=O)CCC6(O)CC6)CC5)cc4s3)CC2)nc1` [Example 131], the EC50 falls from 713 nM to 5 nM (140-fold). The second is the more potent here.

Going from `CCCc1cnc(N2CC[C@@H](Oc3nc4ccc(C5=CCN(S(C)(=O)=O)CC5)cc4s3)C2)nc1` [Example 84] to `CCCc1cnc(N2CC[C@H](Oc3nc4ccc(C5=CCN(S(C)(=O)=O)CC5)cc4s3)C2)nc1` [Example 116], the EC50 falls from 953 nM to 22.1 nM (43-fold). The second is the more potent here.

Going from `CCCS(=O)(=O)N1CC=C(c2ccc3nc(OC4CCN(C(C)=O)CC4)sc3c2)CC1` [Example 92] to `CCCS(=O)(=O)N1CC=C(c2ccc3nc(OC4CCN(C(=O)c5csnn5)CC4)sc3c2)CC1` [Example 109], the EC50 falls from 839 nM to 37 nM (23-fold).

Compared with `CCCS(=O)(=O)N1CC=C(c2ccc3nc(OC4CCN(c5nnc(C)s5)CC4)sc3c2)CC1` [Example 107], `CC(C)(O)CCS(=O)(=O)N1CC=C(c2ccc3nc(OC4CCN(c5nc6ccccc6s5)CC4)sc3c2)CC1` [Example 168] is 7.2-fold lower in EC50: 21.5 nM for the first, 3 nM for the second.

Compared with `CCCc1cnc(N2CC[C@H](Oc3nc4ccc(C5=CCN(S(=O)(=O)CCC)CC5)cc4s3)C2)nc1` [Example 115], `CCCc1cnc(N2CCN(c3nc4ccc(C5=CCN(S(=O)(=O)CC(C)C)CC5)cc4s3)CC2)nc1` [Example 133] is 6-fold higher in EC50: 28.4 nM for the first, 169 nM for the second. The first is the more potent here.

Compared with `CCCS(=O)(=O)N1CC=C(c2ccc3nc(OCC4[C@H]5CN(Cc6ccccc6)C[C@@H]45)sc3c2)CC1` (some centres unmarked) [Example 127], `CC(C)(O)CCS(=O)(=O)N1CC=C(c2ccc3nc(OC4CCN(S(=O)(=O)CC(F)(F)F)CC4)sc3c2)CC1` [Example 205] is 5.8-fold higher in EC50: 29 nM for the first, 169 nM for the second. The first is the more potent here.

Compared with `CCCc1cnc(N2CCC(Cc3nc4ccc(C5=CCN(S(=O)(=O)CCC(C)(C)O)CC5)cc4o3)CC2)nc1` [Example 141], `CCCc1cnc(N2CCC(Cc3nc4ccc(C5CCN(S(=O)(=O)CCC)CC5)cc4o3)CC2)nc1` [Example 147] is 5.2-fold higher in EC50: 9.5 nM for the first, 49.3 nM for the second. The first is the more potent here.

Compared with `CCCc1cnc(N2CCC(Cc3nc4ccc(N5CCN(S(=O)(=O)CCC(=O)OC)CC5)cc4o3)CC2)nc1` [Example 144], `CC(C)(O)CCS(=O)(=O)N1CCN(c2ccc3nc(OC4CCN(c5ncc(F)cn5)CC4)sc3c2)CC1` [Example 216] is 81-fold lower in EC50: 675 nM for the first, 8.3 nM for the second.
